The values that follow come from US4873253A, “Phenylalanine derivative and proteinase inhibitor” (Okamoto; Shosuke, priority 1987, dated 1989).

Counter-ions that a name gives are not always drawn. Like-named read-outs stand apart in the source and are kept apart here.

Data set [1] has as its target T1, bovine thrombin (Bos taurus, UniProt P00735).
T1 construct: a 0.2 unit/ml bovine thrombin solution
Kind of data set: Antithrombin activity: inhibition of S-2238 decomposition. The class given is biochemical. The conditions noted are these: Table 2; substrate S-2238, pH 8.3, 37° C.; read-out: Thrombin S-2238 I50. The protocol: An inhibitor sample is dissolved in a 0.05 M Tris-hydrochloric acid buffer solution (pH=8.3) to make a total volume of 400 μl. […] Thus, the concentration I50 (μmol) of the inhibitor sample at which the absorbance is one half (i.e., 1/2) of that obtained in the absence of the inhibitor sample, is determined.

Data set [2] addresses T1, bovine thrombin. Kind of data set: Antithrombin activity: inhibition of fibrin formation (fibrinogen). The class given is biochemical. How it is done: (i) Determination of inhibition activity against fibrin formation
An inhibitor sample is dissolved in a 0.18 M borate-physiological salt buffer solution (pH= 7.4) to make the total volume to 500 μl. […] Thus, a coagulation time is determined. The inhibitor concentration I50 (μmol), at which the coagulation time obtained in the absence of the inhibitor is extended twice, is determined.

The target in the next data set is T2, bovine trypsin (Bos taurus, UniProt P00760).
T2 sequence (P00760 24-246): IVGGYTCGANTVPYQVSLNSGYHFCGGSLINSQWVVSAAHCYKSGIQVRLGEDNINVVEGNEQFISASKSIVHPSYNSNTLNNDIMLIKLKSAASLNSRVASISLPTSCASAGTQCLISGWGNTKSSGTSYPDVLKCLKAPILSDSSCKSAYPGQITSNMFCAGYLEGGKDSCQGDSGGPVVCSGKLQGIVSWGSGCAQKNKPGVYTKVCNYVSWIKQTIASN
Kind of data set: Antitrypsin activity: inhibition of S-2238 decomposition. The class given is biochemical. How it is done: Determination of inhibition activity against S-2238 decomposition
An inhibitor sample is dissolved in a 0.05 M Tris-imidazole buffer solution (pH=8.1) and 125 μl of a 1 mM S-2238 solution is added to make the total volume to 1.20 ml. The mixture is incubated at a temperature of 37° C. for 5 minutes in a constant temperature bath. To this mixture, 0.05 ml of bovine trypsin is added and the absorbance, at 405 nm, of the p-nitroaniline formed per minute is determined at a temperature of 37° C. by using the so-called initial velocity method. Thus, the concentration I50 (μmol) of a inhibitor sample, at which the absorbance is one half (i.e., 1/2) of that obtained in the absence of the inhibitor sample, is determined.

Data set [3] concerns the target T3, human plasmin (Homo sapiens, UniProt P00747). Kind of data set: Antiplasmin activity: inhibition of S-2251 decomposition. Format: biochemical. The conditions noted are these: Table 2; substrate S-2251, pH 7.4, 37° C. How it is done:
An inhibitor sample is dissolved in a 0.05 M Tris-hydrochloric acid buffer solution (pH=7.4) to make the total volume to 400 μl. […] Then, 50 μl of a 0.2 casein unit/ml human plasmin is added and the mixture is incubated at a temperature of 37° C. for 4 minutes. Thereafter, the reaction is stopped by adding 50 μl of 50% acetic acid.
Thus, the concentration I50 (μmol) of the inhibitor sample, at which the absorbance is one half (i.e., 1/2) of that obtained in the absence of the inhibitor, is determined.

Data set [4] deals with T3, human plasmin. Nature of the data set: Antiplasmin activity: inhibition of fibrin decomposition. The class given is biochemical. As to conditions: Table 2, pH 7.4, 37° C., read-out: Plasmin Fibrin I50 (concentration doubling fibrin dissolution time). The protocol: (i) Determination of inhibition activity for fibrin decomposition
An inhibitor sample is dissolved in a 0.18 M borate-physiological salt buffer solution (pH=7.4) to make the total volume to 600 μl. To this buffer solution, 200 μl of a 0.2% bovine fibrinogen, 100 μl of a 0.3 casein unit/ml human plasmin solution, and 100 μl of a 50 unit/ml bovine thrombin solution, all dissolved in the above-mentioned buffer, are added at a temperature of 37° C. in a constant temperature bath. Then, the dissolution time of the fibrin mass formed above is determined.

The target in another data set is human plasma kallikrein (Homo sapiens, UniProt P03952). Nature of the data set: Anti-plasma kallikrein activity: inhibition of S-2302 decomposition. The class given is biochemical. How it is done: Determination of inhibition activity for S-2302 decomposition
Sequence of human plasma kallikrein (P03952 391-638 limits assumed): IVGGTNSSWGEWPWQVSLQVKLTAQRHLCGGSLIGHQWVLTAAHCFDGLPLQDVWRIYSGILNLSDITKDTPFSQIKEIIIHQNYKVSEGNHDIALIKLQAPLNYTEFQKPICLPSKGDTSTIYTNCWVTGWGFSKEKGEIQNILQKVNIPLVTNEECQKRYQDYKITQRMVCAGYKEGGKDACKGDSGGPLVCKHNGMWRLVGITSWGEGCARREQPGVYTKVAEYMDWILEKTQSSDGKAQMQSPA
Sequence of human plasma kallikrein (P03952 20-390 limits assumed): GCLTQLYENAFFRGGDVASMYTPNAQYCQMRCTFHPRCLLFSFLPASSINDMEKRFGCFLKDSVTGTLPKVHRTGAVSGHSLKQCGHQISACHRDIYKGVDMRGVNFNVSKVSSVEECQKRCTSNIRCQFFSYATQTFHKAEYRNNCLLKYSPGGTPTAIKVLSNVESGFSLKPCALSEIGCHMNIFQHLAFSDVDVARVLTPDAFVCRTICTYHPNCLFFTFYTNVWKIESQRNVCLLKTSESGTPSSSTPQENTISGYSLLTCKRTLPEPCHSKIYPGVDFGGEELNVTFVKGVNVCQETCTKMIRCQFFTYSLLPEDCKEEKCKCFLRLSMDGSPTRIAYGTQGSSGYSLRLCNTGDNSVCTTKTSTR
(§1) An inhibitor sample is dissolved in a 0.05 M Tris-hydrochloric acid buffer solution (pH=7.8) to make the total volume to 400 μl. To this solution, 50 μl of a 2 mM S-2302 solution is added and the mixture is incubated at a temperature of 37° C. for 5 minutes in a constant temperature bath. Then, 50 μl of a 0.12 unit/ml human plasma kallikrein is added and the mixture is incubated at a temperature of 37° C. for 5 minutes. Thereafter, 50 μl of 50% acetic acid is added to terminate the reaction. The absorbance of the p-nitroaniline formed in the reaction mixture is measured at 405 nm. Thus, the concentration I50 (μmol) of the inhibitor sample, at which the absorbance is one half (i.e., 1/2) of that obtained in the absence of the inhibitor sample, is determined.

The next data set concerns the target human urokinase (Homo sapiens, UniProt P00749). Kind of data set: biochemical. The protocol:
Determination of inhibition activity for S-2444 decomposition
as §1, with “solution (pH=8.8)” for “solution (pH=7.8)”, “a 1” for “a 2”, “mM S-2444” for “mM S-2302”, “a 500” for “a 0.12”, “human urokinase” for “human plasma kallikrein”

For data set [5] the following is noted: background statement; cited from earlier work.
For data set [6] the following is noted: background statement; cited from earlier work. This is another data set of the same source.
The conditions of data set [7]: background statement; cited from earlier work. This is another data set of the same source.
The conditions of data set [8]: background statement; cited from earlier work. The source holds these as a separate data set.
Where [9] appears, read: Table 2, bovine fibrinogen, pH 7.4, 37° C., read-out: Thrombin Fibrinogen I50 (concentration doubling coagulation time).
The mark [10] stands for this setting: Table 2, substrate S-2238, pH 8.1, 37° C., read-out: Trypsin S-2238 I50.
The mark [11] stands for this setting: Table 2, substrate S-2302, pH 7.8, 37° C., read-out: Plasma Kallikrein S-2302 I50.
Setting [12] is: Table 2, substrate S-2444, pH 8.8, 37° C., read-out: Urokinase S-2444 I50.

T3 sequence (P00747 581-810 limits assumed): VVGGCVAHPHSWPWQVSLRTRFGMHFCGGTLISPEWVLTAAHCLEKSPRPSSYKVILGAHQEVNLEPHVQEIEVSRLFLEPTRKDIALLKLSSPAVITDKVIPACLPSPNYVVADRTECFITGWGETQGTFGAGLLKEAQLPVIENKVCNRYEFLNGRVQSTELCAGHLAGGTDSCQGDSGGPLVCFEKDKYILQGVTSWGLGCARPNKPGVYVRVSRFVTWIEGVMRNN
T3 sequence (P00747 97-580 limits assumed): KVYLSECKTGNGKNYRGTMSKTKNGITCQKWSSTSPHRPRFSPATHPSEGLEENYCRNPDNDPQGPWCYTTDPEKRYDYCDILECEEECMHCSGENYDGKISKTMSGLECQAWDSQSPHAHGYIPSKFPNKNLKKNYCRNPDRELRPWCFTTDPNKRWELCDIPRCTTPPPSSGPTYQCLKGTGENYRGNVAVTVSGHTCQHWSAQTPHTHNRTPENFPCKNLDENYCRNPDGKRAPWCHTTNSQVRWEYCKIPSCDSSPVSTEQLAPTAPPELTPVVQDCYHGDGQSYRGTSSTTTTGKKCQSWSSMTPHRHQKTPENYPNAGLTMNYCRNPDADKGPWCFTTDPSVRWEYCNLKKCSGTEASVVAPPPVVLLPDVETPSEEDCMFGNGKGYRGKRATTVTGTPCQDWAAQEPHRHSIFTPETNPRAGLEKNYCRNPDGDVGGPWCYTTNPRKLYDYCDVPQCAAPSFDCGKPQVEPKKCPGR

Turning to `NC[C@H]1CC[C@H](C(=O)NC(Cc2cccc(Oc3ccccc3)c2)C(=O)Nc2ccnc(Cl)c2)CC1` (mixture of isomers) [Compound 9, N-(trans-4-aminomethylcylohexylcarbonyl)-3-phenoxy-DL-phenylalanine 4-(2-chloro)pyridylamide dihydrochloride], the IC50 at bovine thrombin [1] is greater than 1000 µM; on bovine thrombin [2] (setting [9]), greater than 500 µM; at bovine trypsin (setting [10]), 2.3 µM.

As to `CC(=O)c1ccc(NC(=O)C(Cc2cccc(Oc3ccccc3)c2)NC(=O)[C@H]2CC[C@H](CN)CC2)cc1` (mixture of isomers) [Compound 2, N-(trans-4-aminomethylcyclohexylcarbonyl)-3-phenoxy-DL-phenylalanine 4-acetylanilide hydrochloride], the IC50 against human plasmin [3] is 19 µM; on human plasmin [4], 14 µM; at bovine thrombin [1], greater than 100 µM; on bovine thrombin [2] (setting [9]) it was greater than 100 µM; on bovine trypsin (setting [10]) it was 2.3 µM; on human plasma kallikrein (setting [11]), 0.38 µM. The IC50 on human urokinase (setting [12]) was determined as 110 µM.

Regarding `NC[C@H]1CC[C@H](C(=O)NC(Cc2cccc(Oc3ccccc3)c2)C(=O)Nc2ccncc2)CC1` (mixture of isomers) [Compound 8, N-(trans-4-aminomethylcyclohexylcarbonyl)-3-phenoxy-DL-phenylalanine 4-pyridylamide dihydrochloride], the IC50 is 65 µM on human plasmin [3]; 24 µM at human plasmin [4]; greater than 100 µM at bovine thrombin [1]; greater than 400 µM on bovine thrombin [2] (setting [9]); 8.8 µM on bovine trypsin (setting [10]); 0.83 µM on human plasma kallikrein (setting [11]). Moreover, on human urokinase (setting [12]), the IC50 turned out to be 87 µM.

As to `NC[C@H]1CC[C@H](C(=O)NC(Cc2cccc(Oc3ccccc3)c2)C(=O)O)CC1` (mixture of isomers) [Compound 58, N-(trans-4-aminomethylcyclohexylcarbonyl)-3-phenoxy-DL-phenylalanine], the IC50 is greater than 1000 µM at bovine thrombin [1], greater than 150 µM at bovine trypsin (setting [10]), 600 µM on human plasma kallikrein (setting [11]) and greater than 1000 µM at human urokinase (setting [12]).

Consider `COCCCNC(=O)C(Cc1cccc(C(F)(F)F)c1)NC(=O)[C@H]1CC[C@H](CN)CC1` (stereo partly shown) [Compound 28], for which the IC50 against human plasmin [3] was greater than 1000 µM; at human plasmin [4], 260 µM; at bovine thrombin [2] (setting [9]), greater than 1000 µM; at bovine trypsin (setting [10]) it was 87 µM; on human plasma kallikrein (setting [11]), greater than 1000 µM; on human urokinase (setting [12]) it was greater than 1000 µM.

For the compound `CCOC(=O)C1CCN(C(=O)C(Cc2cccc(Oc3ccccc3)c2)NC(=O)[C@H]2CC[C@H](CNC(=N)N)CC2)CC1` (stereo partly shown) [Compound 31], the IC50 against human plasmin [3] is 160 µM; on human plasmin [4] it was greater than 100 µM; on bovine thrombin [2] (setting [9]) it was greater than 100 µM; on bovine trypsin (setting [10]), greater than 150 µM; on human plasma kallikrein (setting [11]), greater than 100 µM; on human urokinase (setting [12]) it was greater than 500 µM.

As for `CC(=O)c1ccc(NC(=O)C(Cc2cccc(Oc3ccccc3)c2)NC(=O)c2ccc(NC(=N)N)cc2)cc1` (stereo not shown) [Compound 32], the IC50 against human plasmin [3] is 120 µM; at human plasmin [4] it was greater than 25 µM; at bovine thrombin [2] (setting [9]), greater than 25 µM; on bovine trypsin (setting [10]) it was 15 µM; at human plasma kallikrein (setting [11]), 2.2 µM; at human urokinase (setting [12]), 100 µM.

With `CCOC(=O)c1cccc(NC(=O)C(Cc2cccc(Oc3ccccc3)c2)NC(=O)c2ccc(NC(=N)N)cc2)c1` (stereo not shown) [Compound 33], the IC50 against human plasmin [3] was greater than 100 µM; at human plasmin [4] it was greater than 25 µM; against bovine thrombin [2], greater than 25 µM; on bovine trypsin (setting [10]) it was 42 µM; on human plasma kallikrein (setting [11]), 4.5 µM; at human urokinase (setting [12]), greater than 200 µM.

Turning to `N=C(N)c1ccc2cc(OC(=O)c3ccc(N=C(N)N)cc3)ccc2c1` [FUT-175, reference compound], the values for the IC50 on bovine trypsin, at human plasma kallikrein and against human urokinase were 0.27 µM, 0.076 µM and 0.013 µM, respectively. Besides, in data set [5], the “half life in vivo” value was “short”. In addition, the hypotensive action entry in [6] is listed as “large”. Also, in data set [7], the LD50 value result is “small”.

In the case of Aprotinin, the “side effects when administered to humans” value in data set [8] is listed as “side effects such as allergic reactions”.
